From patent US4250259A, “Microbiological production of ketones from C3 -C6 secondary alcohols” (priority 1979, dated 1981)

Columns and labels:
[1] = system: cell suspensions of C1-utilizers; experiment: studies on production of 2-butanone from 2-butanol by cell suspensions of the strains tested; format: cell-based; conditions: cell suspensions
Text: The following summarizes tests conducted on the optimal conditions for the production of methyl ketones from C3 -C6 sec. alcohols.
The substrate specificity for the oxidation of C3 -C6 secondary alcohols by the strains of C1 -utilizers was studied.

[2] = system: secondary alcohol dehydrogenase (SADH), cell-free soluble extract; experiment: oxidation of sec-alcohols by cell-free soluble extracts; format: biochemical, Methylosinus trichosporium OB3b (NRRL B-11,196); conditions: soluble crude extract; grown on methanol
Description: (§1) To prepare the cell-free secondary alcohol dehydrogenase (SADH) system, the washed cells were disrupted with a Wave Energy Ultrasonic Oscillator, Model W201 (Wave Energy System, Inc., Newtown, Pa.) and centrifuged at 20,000×g. for 30 minutes. […] The enzyme activity was measured with a fluorescence spectrophotometer (Perkin Elmer, Model MPF 44A) by following the formation of reduced NAD (EX 340 nm, Em 460 nm). The formation of reduced NAD was also followed with an absorption spectrophotometer at 340 nm. The assay system (3 ml.) contained: potassium phosphate buffer pH 7.0; 150 μmol.; NAD 1 μmol.; a given amount of enzyme preparation; and secondary alcohol 10 μmol. The reaction was started by the addition of substrate. One unit of enzyme activity represents the reduction of one μmole NAD per minute. Protein concentrations were determined by the Lowry method (J. Biol. Chem., 193: 255-275 (1951)).
(§2) The experimental procedure for the tests reported in Table VIII were as follows: 1 mg protein of crude extract was added into a 0.5 ml. 0.05 M phosphate buffer (pH 7.0) in a 10-ml. vial. […] The reaction mixture was incubated at 30° C. on a water bath. A 3 μl sample was removed with a syringe at 15 min. of incubation and was assayed with g.l.c. Catalytic activity was also assayed by fluorescence spectrophotometry.

[3] = system: secondary alcohol dehydrogenase (SADH), cell-free soluble extract; experiment: as above; format: biochemical, Methylococcus capsulatus CRL M1 (NRRL B-11,219); conditions: soluble crude extract; grown on methanol
Description: as §1, §2

[4] = system: secondary alcohol dehydrogenase (SADH), cell-free soluble extract; experiment: as above; format: biochemical, Methylobacterium organophilum CRL 26 (NRRL B-11,222); conditions: soluble crude extract; grown on methanol
Description: as §1, §2

[5] = system: purified secondary alcohol dehydrogenase (SADH); experiment: substrate specificity and Michaelis constants of purified SADH; format: biochemical, Pseudomonas sp. ATCC 21439
[6] = system: Hansenula polymorpha ATCC 26012; experiment: sec-alcohols to ketones by cell suspensions of yeasts; format: cell-based
[7] = system: Pichia sp. NRRL-Y-11328; experiment: as above; format: cell-based
[8] = system: Torulopsis sp. Strain A1 (NRRLY-11,419); experiment: as above; format: cell-based
[9] = system: Kloeckera sp. Strain A2 (NRRLY-11,420); experiment: as above; format: cell-based
[10] = system: cell extracts (NAD+-dependent secondary alcohol dehydrogenase); experiment: sec-alcohols to methyl ketones by cell extracts of yeasts, gas chromatography; format: biochemical, Hansenula polymorpha ATCC 26,012; conditions: grown on methanol
[11] = system: cell extracts (NAD+-dependent secondary alcohol dehydrogenase); experiment: as above; format: biochemical, Torulopsis sp. strain A1 NRRL-Y-11,419; conditions: grown on methanol
[12] = system: cell extracts (NAD+-dependent secondary alcohol dehydrogenase); experiment: as above; format: biochemical, Kloeckera sp. strain A2 NRRL-Y-11,420; conditions: grown on methanol
[13] = system: purified secondary alcohol dehydrogenase; experiment: substrate specificity, electron acceptor and stoichiometry of purified yeast SADH; conditions: for oxidation by the purified yeast secondary alcohol dehydrogenase: examined spectrophotometrically

CCCC(C)O (centres unmarked) [2-Pentanol, 2-pentanol]
rate of oxidation of secondary alcohols by strains of C1-utilizers [1]: much slower rate
Oxidation Rate, sec-alcohol to corresponding ketone [2]: 0.1 nmole/min/mg protein
Oxidation Rate, sec-alcohol to corresponding ketone [3]: 0.1 nmole/min/mg protein
Oxidation Rate, sec-alcohol to corresponding ketone [4]: 0.1 nmole/min/mg protein
oxidation by purified SADH [5]: lower rate
Conversion Rate, sec-alcohol to corresponding ketone ([6]; Growth Substrate Ethanol): 1.1 μmoles/hr/mg of protein
Conversion Rate, sec-alcohol to corresponding ketone ([6]; Growth Substrate Methanol): 1.4 μmoles/hr/mg of protein
Conversion Rate, sec-alcohol to corresponding ketone ([6]; Growth Substrate Methylamine): 1.2 μmoles/hr/mg of protein
Conversion Rate, sec-alcohol to corresponding ketone ([6]; Growth Substrate Methylformate): 1.3 μmoles/hr/mg of protein
Conversion Rate, sec-alcohol to corresponding ketone ([6]; Growth Substrate Propylamine): 0.82 μmoles/hr/mg of protein
Conversion Rate, sec-alcohol to corresponding ketone ([7]; Growth Substrate Ethanol): 1.0 μmoles/hr/mg of protein
Conversion Rate, sec-alcohol to corresponding ketone ([7]; Growth Substrate Methanol): 1.2 μmoles/hr/mg of protein
Conversion Rate, sec-alcohol to corresponding ketone ([7]; Growth Substrate Methylamine): 0.72 μmoles/hr/mg of protein
Conversion Rate, sec-alcohol to corresponding ketone ([7]; Growth Substrate Methylformate): 0.98 μmoles/hr/mg of protein
Conversion Rate, sec-alcohol to corresponding ketone ([7]; Growth Substrate Propylamine): 0.60 μmoles/hr/mg of protein
Conversion Rate, sec-alcohol to corresponding ketone ([8]; Growth Substrate Ethanol): 1.2 μmoles/hr/mg of protein
Conversion Rate, sec-alcohol to corresponding ketone ([8]; Growth Substrate Methanol): 1.0 μmoles/hr/mg of protein
Conversion Rate, sec-alcohol to corresponding ketone ([8]; Growth Substrate Methylamine): 0.9 μmoles/hr/mg of protein
Conversion Rate, sec-alcohol to corresponding ketone ([8]; Growth Substrate Methylformate): 1.1 μmoles/hr/mg of protein
Conversion Rate, sec-alcohol to corresponding ketone ([8]; Growth Substrate Propylamine): 0.62 μmoles/hr/mg of protein
Conversion Rate, sec-alcohol to corresponding ketone ([9]; Growth Substrate Ethanol): 1.0 μmoles/hr/mg of protein
Conversion Rate, sec-alcohol to corresponding ketone ([9]; Growth Substrate Methanol): 1.2 μmoles/hr/mg of protein
Conversion Rate, sec-alcohol to corresponding ketone ([9]; Growth Substrate Methylamine): 1.0 μmoles/hr/mg of protein
Conversion Rate, sec-alcohol to corresponding ketone ([9]; Growth Substrate Methylformate): 1.2 μmoles/hr/mg of protein
Conversion Rate, sec-alcohol to corresponding ketone ([9]; Growth Substrate Propylamine): 0.92 μmoles/hr/mg of protein
Conversion Rate, sec-alcohol to methyl ketone [10]: 1.0 μmoles/hr/mg Protein
Conversion Rate, sec-alcohol to methyl ketone [11]: 1.0 μmoles/hr/mg Protein
Conversion Rate, sec-alcohol to methyl ketone [12]: 1.2 μmoles/hr/mg Protein
oxidation by the purified yeast secondary alcohol dehydrogenase [13]: catalyzed the oxidation

CC(C)O [2-Propanol, 2-propanol]
rate of oxidation of secondary alcohols by strains of C1-utilizers [1]: higher rates
Oxidation Rate, sec-alcohol to corresponding ketone [2]: 2.0 nmole/min/mg protein
Oxidation Rate, sec-alcohol to corresponding ketone [3]: 1.7 nmole/min/mg protein
Oxidation Rate, sec-alcohol to corresponding ketone [4]: 2.1 nmole/min/mg protein
oxidation by purified SADH [5]: highest
Conversion Rate, sec-alcohol to corresponding ketone ([6]; Growth Substrate Ethanol): 5.0 μmoles/hr/mg of protein
Conversion Rate, sec-alcohol to corresponding ketone ([6]; Growth Substrate Methanol): 5.9 μmoles/hr/mg of protein
Conversion Rate, sec-alcohol to corresponding ketone ([6]; Growth Substrate Methylamine): 5.2 μmoles/hr/mg of protein
Conversion Rate, sec-alcohol to corresponding ketone ([6]; Growth Substrate Methylformate): 5.6 μmoles/hr/mg of protein
Conversion Rate, sec-alcohol to corresponding ketone ([6]; Growth Substrate Propylamine): 4.1 μmoles/hr/mg of protein
Conversion Rate, sec-alcohol to corresponding ketone ([7]; Growth Substrate Ethanol): 4.5 μmoles/hr/mg of protein
Conversion Rate, sec-alcohol to corresponding ketone ([7]; Growth Substrate Methanol): 5.2 μmoles/hr/mg of protein
Conversion Rate, sec-alcohol to corresponding ketone ([7]; Growth Substrate Methylamine): 4.2 μmoles/hr/mg of protein
Conversion Rate, sec-alcohol to corresponding ketone ([7]; Growth Substrate Methylformate): 4.9 μmoles/hr/mg of protein
Conversion Rate, sec-alcohol to corresponding ketone ([7]; Growth Substrate Propylamine): 3.2 μmoles/hr/mg of protein
Conversion Rate, sec-alcohol to corresponding ketone ([8]; Growth Substrate Ethanol): 4.2 μmoles/hr/mg of protein
Conversion Rate, sec-alcohol to corresponding ketone ([8]; Growth Substrate Methanol): 4.5 μmoles/hr/mg of protein
Conversion Rate, sec-alcohol to corresponding ketone ([8]; Growth Substrate Methylamine): 4.3 μmoles/hr/mg of protein
Conversion Rate, sec-alcohol to corresponding ketone ([8]; Growth Substrate Methylformate): 4.5 μmoles/hr/mg of protein
Conversion Rate, sec-alcohol to corresponding ketone ([8]; Growth Substrate Propylamine): 3.2 μmoles/hr/mg of protein
Conversion Rate, sec-alcohol to corresponding ketone ([9]; Growth Substrate Ethanol): 4.5 μmoles/hr/mg of protein
Conversion Rate, sec-alcohol to corresponding ketone ([9]; Growth Substrate Methanol): 4.8 μmoles/hr/mg of protein
Conversion Rate, sec-alcohol to corresponding ketone ([9]; Growth Substrate Methylamine): 4.0 μmoles/hr/mg of protein
Conversion Rate, sec-alcohol to corresponding ketone ([9]; Growth Substrate Methylformate): 4.9 μmoles/hr/mg of protein
Conversion Rate, sec-alcohol to corresponding ketone ([9]; Growth Substrate Propylamine): 4.0 μmoles/hr/mg of protein
Conversion Rate, sec-alcohol to methyl ketone [10]: 4.8 μmoles/hr/mg Protein
Conversion Rate, sec-alcohol to methyl ketone [11]: 4.5 μmoles/hr/mg Protein
Conversion Rate, sec-alcohol to methyl ketone [12]: 4.8 μmoles/hr/mg Protein
oxidation by the purified yeast secondary alcohol dehydrogenase [13]: catalyzed the oxidation
Product Formed ([13]; stoichiometry, Acetone from Isopropanol, 2-Butanone from 2-Butanol, gas chromatography): 5.5 µmol
